Test results reported in PubChem BioAssay (NCI).
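Values below derive from 48-hour exposures of cells grown in 96-well plates, with endpoints linearly interpolated between the two concentrations bracketing the appropriate inhibition level. GI50 marks 50% less growth. TGI: concentration producing complete growth inhibition.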

Legend:
Test in all cases: growth of human tumour cells (NCI), 48 h
[1] = tested on: 786-0 renal
[2] = tested on: A498 renal
[3] = tested on: A549 NSCLC
[4] = tested on: BT-549 breast
[5] = tested on: CAKI-1 renal
[6] = tested on: COLO 205 colon
[7] = tested on: DU-145 prostate
[8] = tested on: EKVX NSCLC
[9] = tested on: HCC-2998 colon
[10] = tested on: HCT-116 colon
[11] = tested on: HOP-62 NSCLC
[12] = tested on: HS 578T breast
[13] = tested on: HT29 colon
[14] = tested on: IGROV1 ovarian
[15] = tested on: KM12 colon
[16] = tested on: LOX IMVI melanoma
[17] = tested on: M14 melanoma
[18] = tested on: MALME-3M melanoma
[19] = tested on: MCF7 breast
[20] = tested on: MDA-MB-231 breast
[21] = tested on: MDA-MB-435
[22] = tested on: NCI-H226 lung
[23] = tested on: NCI-H23 lung
[24] = tested on: NCI-H460 lung
[25] = tested on: NCI-H522 lung
[26] = tested on: NCI/ADR-RES ovarian
[27] = tested on: OVCAR-3 ovarian
[28] = tested on: OVCAR-4 ovarian
[29] = tested on: OVCAR-8 ovarian
[30] = tested on: RXF 393 renal
[31] = tested on: SF-268 CNS
[32] = tested on: SF-295 CNS
[33] = tested on: SK-MEL-2 melanoma
[34] = tested on: SK-MEL-28 melanoma
[35] = tested on: SK-MEL-5 melanoma
[36] = tested on: SK-OV-3 ovarian
[37] = tested on: SN12C renal
[38] = tested on: SNB-19 CNS
[39] = tested on: SNB-75 CNS
[40] = tested on: SW-620 colon
[41] = tested on: T-47D breast
[42] = tested on: TK-10 renal
[43] = tested on: U251 CNS
[44] = tested on: UACC-257 melanoma
[45] = tested on: UACC-62 melanoma
[46] = tested on: UO-31 renal
[47] = tested on: ACHN renal
[48] = tested on: CCRF-CEM leukemia
[49] = tested on: HOP-92 NSCLC
[50] = tested on: K-562 leukemia
[51] = tested on: PC-3 prostate
[52] = tested on: SF-539 CNS
[53] = tested on: HCT-15 colon
[54] = tested on: OVCAR-5 ovarian
[55] = tested on: RPMI-8226 leukemia

## N#CC1(Nc2ccc(Br)cc2)CCCC1
[1]
  GI50: 11.3 µM
  TGI: > 100 µM
[2]
  GI50: > 100 µM
  TGI: > 100 µM
[3]
  GI50: 8.15 µM
  TGI: > 100 µM
[4]
  GI50: 22.2 µM
  TGI: > 100 µM
[5]
  GI50: 0.529 µM
  TGI: > 100 µM
[6]
  GI50: > 100 µM
  TGI: > 100 µM
[7]
  GI50: > 100 µM
  TGI: > 100 µM
[8]
  GI50: 7.27 µM
  TGI: > 100 µM
[9]
  GI50: 8.3 µM
  TGI: > 100 µM
[10]
  GI50: > 100 µM
  TGI: > 100 µM
[11]
  GI50: > 100 µM
  TGI: > 100 µM
[12]
  GI50: > 100 µM
  TGI: > 100 µM
[13]
  GI50: > 100 µM
  TGI: > 100 µM
[14]
  GI50: 75.4 µM
  TGI: > 100 µM
[15]
  GI50: 1.86 µM
  TGI: > 100 µM
[16]
  GI50: 0.543 µM
  TGI: > 100 µM
[17]
  GI50: 1.2 µM
  TGI: > 100 µM
[18]
  GI50: 42.6 µM
  TGI: > 100 µM
[19]
  GI50: 9.98 µM
  TGI: > 100 µM
[20]
  GI50: 3.16 µM
  TGI: > 100 µM
[21]
  GI50: 3.78 µM
  TGI: > 100 µM
[22]
  GI50: > 100 µM
  TGI: > 100 µM
[23]
  GI50: > 100 µM
  TGI: > 100 µM
[24]
  GI50: 1.99 µM
  TGI: > 100 µM
[25]
  GI50: > 100 µM
  TGI: > 100 µM
[26]
  GI50: 9.2 µM
  TGI: > 100 µM
[27]
  GI50: 96.4 µM
  TGI: > 100 µM
[28]
  GI50: > 100 µM
  TGI: > 100 µM
[29]
  GI50: 26.5 µM
  TGI: > 100 µM
[30]
  GI50: > 100 µM
  TGI: > 100 µM
[31]
  GI50: > 100 µM
  TGI: > 100 µM
[32]
  GI50: 2.3 µM
  TGI: > 100 µM
[33]
  GI50: > 100 µM
  TGI: > 100 µM
[34]
  GI50: > 100 µM
  TGI: > 100 µM
[35]
  GI50: 3.05 µM
  TGI: > 100 µM
[36]
  GI50: > 100 µM
  TGI: > 100 µM
[37]
  GI50: 12.6 µM
  TGI: > 100 µM
[38]
  GI50: > 100 µM
  TGI: > 100 µM
[39]
  GI50: > 100 µM
  TGI: > 100 µM
[40]
  GI50: 3.22 µM
  TGI: > 100 µM
[41]
  GI50: 9.39 µM
  TGI: > 100 µM
[42]
  GI50: > 100 µM
  TGI: > 100 µM
[43]
  GI50: 44.5 µM
  TGI: > 100 µM
[44]
  GI50: 31.4 µM
  TGI: > 100 µM
[45]
  GI50: 0.427 µM
  TGI: > 100 µM
[46]
  GI50: 4.69 µM
  TGI: > 100 µM

## C=CCN1C(=O)c2cccc3c(N4CCOCC4)ccc(c23)C1=O
[1]
  GI50: 0.263 µM
  TGI: 32.7 µM
[2]
  GI50: 0.0138 µM
  TGI: 0.0421 µM
[3]
  GI50: 0.102 µM
  TGI: 0.595 µM
[47]
  GI50: 0.113 µM
  TGI: > 100 µM
[4]
  GI50: 0.0234 µM
  TGI: 0.294 µM
[48]
  GI50: 0.0452 µM
  TGI: > 100 µM
[7]
  GI50: 0.0638 µM
  TGI: 13.6 µM
[8]
  GI50: 0.0405 µM
  TGI: 0.979 µM
[10]
  GI50: 0.0961 µM
  TGI: 0.428 µM
[11]
  GI50: 0.101 µM
  TGI: > 100 µM
[49]
  TGI: 0.0416 µM
[13]
  GI50: 0.065 µM
  TGI: 11.1 µM
[14]
  GI50: 0.0114 µM
  TGI: 0.0915 µM
[50]
  GI50: 0.202 µM
  TGI: > 100 µM
[15]
  GI50: 0.131 µM
  TGI: 60.9 µM
[16]
  GI50: 0.023 µM
  TGI: 0.159 µM
[17]
  GI50: 0.0429 µM
  TGI: > 100 µM
[21]
  GI50: 0.0659 µM
  TGI: 22.2 µM
[22]
  GI50: 0.167 µM
  TGI: 1.75 µM
[23]
  GI50: 0.126 µM
  TGI: > 100 µM
[24]
  GI50: 0.272 µM
  TGI: 12.7 µM
[25]
  GI50: 0.206 µM
  TGI: 12.3 µM
[27]
  GI50: 0.0118 µM
  TGI: 0.142 µM
[28]
  GI50: 0.31 µM
  TGI: > 100 µM
[29]
  GI50: 0.229 µM
  TGI: > 100 µM
[51]
  GI50: 0.128 µM
  TGI: 0.748 µM
[30]
  GI50: 0.0162 µM
  TGI: 0.128 µM
[31]
  GI50: 0.104 µM
  TGI: 0.548 µM
[52]
  GI50: 0.0293 µM
  TGI: 0.376 µM
[33]
  GI50: 0.146 µM
  TGI: 0.675 µM
[34]
  GI50: 0.0254 µM
  TGI: 0.492 µM
[35]
  GI50: 0.0274 µM
  TGI: 0.127 µM
[36]
  GI50: 0.0498 µM
  TGI: 0.667 µM
[37]
  GI50: 0.0796 µM
  TGI: > 100 µM
[39]
  TGI: 40.6 µM
[40]
  GI50: 0.249 µM
  TGI: 12.5 µM
[41]
  GI50: 0.0148 µM
  TGI: 11.5 µM
[42]
  GI50: 0.0623 µM
  TGI: 0.791 µM
[43]
  GI50: 0.0592 µM
  TGI: 0.606 µM
[44]
  GI50: 0.0685 µM
  TGI: 0.642 µM
[45]
  GI50: 0.188 µM
  TGI: 0.613 µM
[46]
  GI50: 0.0134 µM
  TGI: 0.322 µM

## Cc1ccc(S(=O)(=O)c2ccccc2)cc1
[1]
  GI50: 8.08 µM
  TGI: > 100 µM
[2]
  GI50: 2.8 µM
  TGI: 29.5 µM
[3]
  GI50: 4.27 µM
  TGI: > 100 µM
[47]
  GI50: 11.7 µM
  TGI: > 100 µM
[4]
  GI50: 8.05 µM
  TGI: > 100 µM
[5]
  GI50: 2.39 µM
  TGI: > 100 µM
[6]
  GI50: 2.71 µM
  TGI: 6.3 µM
[7]
  GI50: 2.78 µM
  TGI: 7.9 µM
[8]
  GI50: 3.87 µM
  TGI: > 100 µM
[9]
  GI50: 6.82 µM
  TGI: 64.4 µM
[10]
  GI50: 3.86 µM
  TGI: > 100 µM
[53]
  GI50: 4.91 µM
  TGI: > 100 µM
[49]
  GI50: 2.62 µM
  TGI: 26.2 µM
[13]
  GI50: 2.7 µM
  TGI: 48.9 µM
[14]
  GI50: 3.97 µM
  TGI: > 100 µM
[15]
  GI50: 3.45 µM
  TGI: 68.5 µM
[16]
  GI50: 5.05 µM
  TGI: > 100 µM
[18]
  GI50: 4.76 µM
  TGI: > 100 µM
[19]
  GI50: 4 µM
  TGI: > 100 µM
[20]
  GI50: 3.63 µM
  TGI: > 100 µM
[21]
  GI50: 0.834 µM
  TGI: 5.06 µM
[22]
  GI50: 16.6 µM
  TGI: > 100 µM
[23]
  GI50: 6.14 µM
  TGI: > 100 µM
[24]
  GI50: 3.26 µM
  TGI: 21.1 µM
[25]
  GI50: 1.82 µM
  TGI: 4.68 µM
[27]
  GI50: 2.32 µM
  TGI: 5.02 µM
[28]
  GI50: 22.2 µM
  TGI: > 100 µM
[54]
  GI50: 8.44 µM
  TGI: > 100 µM
[29]
  GI50: 5.77 µM
  TGI: > 100 µM
[51]
  GI50: 4.24 µM
  TGI: > 100 µM
[55]
  GI50: 3.4 µM
  TGI: 9.87 µM
[30]
  GI50: 2.62 µM
  TGI: 7.54 µM
[31]
  GI50: 5.82 µM
  TGI: > 100 µM
[32]
  GI50: 2.55 µM
  TGI: 9.03 µM
[52]
  GI50: 2.55 µM
  TGI: 7 µM
[33]
  GI50: 3.01 µM
  TGI: > 100 µM
[34]
  GI50: 5.65 µM
  TGI: > 100 µM
[35]
  GI50: 4.01 µM
  TGI: > 100 µM
[36]
  GI50: 3.89 µM
  TGI: 42.2 µM
[37]
  GI50: 5.37 µM
  TGI: > 100 µM
[38]
  GI50: 4.73 µM
  TGI: > 100 µM
[40]
  GI50: 3.2 µM
  TGI: > 100 µM
[41]
  GI50: 6.43 µM
  TGI: > 100 µM
[42]
  GI50: 5.65 µM
  TGI: > 100 µM
[43]
  GI50: 4.32 µM
  TGI: > 100 µM
[44]
  GI50: 42 µM
  TGI: > 100 µM
[45]
  GI50: 4.61 µM
  TGI: > 100 µM
[46]
  GI50: 5.7 µM
  TGI: > 100 µM
